Results as given in paper PMC5209718, “Piscidin-1-analogs with double L- and D-lysine residues exhibited different conformations in lipopolysaccharide but comparable anti-endotoxin activities” (Scientific Reports, 2017).
≈ marks a conversion by molar mass, not a printed value. Read-outs that look alike come from different tables or passages of the source. Residues, ends and D or L forms follow the SMILES beside them.

Tests used:
E. coli (ATCC 25922) = test: Antibacterial activity (MIC), liquid culture in 96-well microtiter plates; assay type: cell-based; conditions: read-out: Minimum inhibitory conc. (MIC) against bacteria 11
Description: (§1) Piscidin-1 and its analogs were examined for bacterial growth-inhibiting activity in liquid cultures against Gram-positive bacteria including MRSA strains and Gram-negative bacteria (Table 2). […] The therapeutic index is a parameter that signify the specificity or selectivity of antimicrobial agents towards microorganisms over mammalian cells.
(§2) Antibacterial assays with all the peptides were done in 96-well microtiter plates against different Gram-positive, Gram-negative and resistant bacteria as described earlier.

[1] = test system: Staphylococcus aureus (ATCC 1708 MRSA); test: microbe, parasite or virus in culture
Description: as §1, §2

[2] = test system: Staphylococcus aureus (ATCC BAA-44 MRSA); test: microbe, parasite or virus in culture
Description: as §1, §2

[3] = test system: Staphylococcus aureus (ATCC 700698 MRSA); test: microbe, parasite or virus in culture
Description: as §1, §2

[4] = test system: Staphylococcus aureus (ATCC 33592 Gentamycin Resistant); test: microbe, parasite or virus in culture
Description: as §1, §2

[5] = test system: Staphylococcus aureus (ATCC 700699 MRSA); test: microbe, parasite or virus in culture
Description: as §1, §2

[6] = test system: K. pneumoniae (ATCC 27736); test: microbe, parasite or virus in culture; assay type: cell-based; conditions: for MIC: K. pneumoniae (ATCC 27736), means of three independent experiments each in duplicate ± SD, read-out: Minimum inhibitory conc. (MIC) against bacteria 10; for Minimum inhibitory conc. (MIC) against bacteria 10: ATCC 27736
Description: as §1, §2

[7] = test system: Staphylococcus aureus (ATCC 29213); test: microbe, parasite or virus in culture; assay type: cell-based; conditions: for MIC: Staphylococcus aureus (ATCC 29213), means of three independent experiments each in duplicate ± SD, read-out: Minimum inhibitory conc. (MIC) against bacteria 2; for Minimum inhibitory conc. (MIC) against bacteria 2: ATCC 29213
Description: as §1, §2

[8] = test system: Staphylococcus aureus (ATCC 25923); test: microbe, parasite or virus in culture; assay type: cell-based; conditions: for MIC: Staphylococcus aureus (ATCC 25923), means of three independent experiments each in duplicate ± SD, read-out: Minimum inhibitory conc. (MIC) against bacteria 1; for Minimum inhibitory conc. (MIC) against bacteria 1: ATCC 25923
Description: as §1, §2

B. subtilis (ATCC 6633) = test: microbe, parasite or virus in culture; assay type: cell-based; conditions: for MIC: B. subtilis (ATCC 6633), means of three independent experiments each in duplicate ± SD, read-out: Minimum inhibitory conc. (MIC) against bacteria 9; for Minimum inhibitory conc. (MIC) against bacteria 9: ATCC 6633
Description: as §1, §2

[9] = test system: P. aeruginosa (ATCC BAA-427); test: microbe, parasite or virus in culture; assay type: cell-based; conditions: for MIC: P. aeruginosa (ATCC BAA-427), means of three independent experiments each in duplicate ± SD, read-out: Minimum inhibitory conc. (MIC) against bacteria 8; for Minimum inhibitory conc. (MIC) against bacteria 8: ATCC BAA-427
Description: as §1, §2

[10] = test system: human red blood cells (hRBCs); assay type: cell-based
Description: Cytotoxic activity of piscidin-1 and its designed analogs was examined by assaying the lysis of human red blood cells (hRBCs) and the viability of murine 3T3 cells in presence of these peptides. […] Introduction of D-lysine (dK)residues instead of threonine residues at 15th & 21st positions further reduced the haemolytic activity of piscidin-1 (Fig. 1A). Overall, haemolytic activity of these peptides against hRBCs followed the order piscidin-1 > T15K-piscidin-1 > T15dK-piscidin-1 > T15,21K-piscidin-1 > T15,21dK-piscidin-1. Viability of 3T3 cells as determined by MTT assay in the presence of these peptides followed the same trend as their haemolytic activity (Fig. 1B).
Haemolytic activity of the peptides against human red blood cells in PBS was performed by assaying the ability of the peptides to lyse the hRBCs[24][48]. For this purpose, fresh human red blood cells (hRBCs) were collected in the presence of an anti-coagulant from a healthy volunteer. After washing the blood three times with PBS haemolytic activity of the peptides were determined as reported previously. Methodology of our experiment with human blood was in accordance with relevant guidelines and regulations of CSIR-central drug research institute ethics committee and was approved by it with approval No. CDRI/IEC/2014/A5. Further, informed consent was obtained from the healthy volunteer before collection of blood as per the guideline of our Institutional ethics committee.

hRBCs = test: Localization of NBD-labelled peptides onto hRBCs by confocal microscopy, quantitative fluorescence; assay type: cell-based, human; conditions: NBD-labelled peptides ~10.0 μM, at least 25 cells analysed
Description: Figure 3 Confocal laser scanning microscopy to look into the localization of piscidin-1 and its selected analogs onto E. coli and hRBCs. […] Fluorescence and DIC images for treatment of different cells with each of the peptides are shown as marked on top of the respective panel. Panels (C) and (D) show the quantitative analysis of fluorescence intensity of E. coli and hRBCsbound to NBD-labeled piscidin-1, T15,21K-piscidin-1 and T15,21dK-piscidin-1 respectively.
The localization of NBD-labeled piscidin-1, T15,21K-piscidin-1 and T15,21dK-piscidin-1 was also studied onto hRBCs by confocal microscopy. […] Quantitative analyses of the confocal microscopic fluorescence images were carried out. At least 25 cells from fluorescence images for each set of experiments were included in the analysis. The results are shown at the bottom of the fluorescence images of the respective cells (Fig. 3C and D).

[11] = test system: E. coli 0111:B4 LPS-administered mice; test: In vivo anti-LPS activity: survival of LPS-administered mice (septic shock); conditions: single dose 1.0 mg/kg i.p. after LPS 12 mg/kg; BALB/c mice; monitored 7 days
Description: Septic shock in BALB/c mice was induced by intraperitoneal (i.p.) injection of E. coli LPS (12 mg/kg) followed by i.p. injection of T15,21K-piscidin-1 (0.5 mg/Kg) or T15,21dK-piscidin-1 (1 mg/Kg) or polymyxin B (1 mg/Kg) ~5 min later. Mice treated with only saline was taken as control. Survival of the animals (n = 5) was monitored for 7 days (***p < 0.0001, log-rank test).
Polymyxin B was taken as the positive control and the experiments were performed as reported earlier[14][30][31].
In vivo studies, treat ment of Mice
Female BALB/c mice (National laboratory animal centre, central drug research institute,
Lucknow) we re given a s tandard laborato r y diet an d water ad libitum and housed under controlled
environmental conditions. The mice wer e approx imatel y 25 g each at the st art of experiments. All
the mice were divided into experimental groups for the administration of LPS and peptides. Mice
were treated with 12 m g/ kg E. coli 0111: B4 LPS i n presen ce and in absen ce of peptide in different
experimental groups. The mice treated with saline onl y, in absence of LP S were considered as
experimental controls. To study the efficacy of a peptide in neutralizing LPS-induced pro-
inflammatory responses in mice ~5 min post LPS treatment, the respective peptide was
administered i.p. at a site other than the one, used for LPS injection. […] Survival of mice was
monitored for 7 da ys. Survival of mice was also mo nitored following th e treatment of onl y p eptides
for investigating their toxic effects.

[12] = means of three independent experiments each in duplicate ± SD
[13] = Staphylococcus aureus (ATCC 1708 MRSA), means of three independent experiments each in duplicate ± SD
[14] = Staphylococcus aureus (ATCC BAA-44 MRSA), means of three independent experiments each in duplicate ± SD
[15] = Staphylococcus aureus (ATCC 700698 MRSA), means of three independent experiments each in duplicate ± SD
[16] = Staphylococcus aureus (ATCC 33592 Gentamycin Resistant), means of three independent experiments each in duplicate ± SD
[17] = Staphylococcus aureus (ATCC 700699 MRSA), means of three independent experiments each in duplicate ± SD

Compound: CCn1cc(C(=O)O)c(=O)c2cc(F)c(N3CCNCC3)cc21 [Norfloxacin, reference compound]
- MIC (E. coli (ATCC 25922); Escherichia coli, ATCC25922, means of three independent experiments each in duplicate ± SD): 0.125 µM (≈ 0.0399 µg/mL)
- MIC ([1]; Staphylococcus aureus, ATCC1708|MRSA, read-out: Minimum inhibitory conc. (MIC) against bacteria 7): > 150 µM
- MIC ([2]; Staphylococcus aureus, ATCCBAA44|MRSA, read-out: Minimum inhibitory conc. (MIC) against bacteria 5): 39 µM (≈ 12.5 µg/mL)
- MIC ([3]; Staphylococcus aureus, ATCC700698|MRSA, read-out: Minimum inhibitory conc. (MIC) against bacteria 6): > 150 µM
- MIC ([4]; Staphylococcus aureus, ATCC33592, read-out: Minimum inhibitory conc. (MIC) against bacteria 4): 2.44 µM (≈ 0.779 µg/mL)
- MIC ([5]; Staphylococcus aureus, ATCC700699|MRSA, read-out: Minimum inhibitory conc. (MIC) against bacteria 3): > 150 µM
- MIC ([6]; Klebsiella pneumoniae, ATCC27736): 0.125 µM (≈ 0.0399 µg/mL)
- MIC ([7]; ATCC29213): 2.44 µM (≈ 0.779 µg/mL)
- MIC ([8]; ATCC25923): 1.22 µM (≈ 0.39 µg/mL)
- MIC (B. subtilis (ATCC 6633); Bacillus subtilis, ATCC6633): 0.39 µM (≈ 0.125 µg/mL)
- MIC ([9]; Pseudomonas aeruginosa, ATCCBAA427): 2.19 µM (≈ 0.699 µg/mL)

Compound: CC[C@H](C)[C@H](NC(=O)CNC(=O)[C@H](CCCNC(=N)N)NC(=O)[C@H](Cc1ccccc1)NC(=O)[C@@H](NC(=O)[C@H](Cc1c[nH]cn1)NC(=O)[C@H](Cc1c[nH]cn1)NC(=O)[C@H](Cc1ccccc1)NC(=O)[C@@H](N)Cc1ccccc1)[C@@H](C)CC)C(=O)N[C@H](C(=O)N[C@@H](Cc1c[nH]cn1)C(=O)N[C@H](C(=O)NCC(=O)N[C@@H](CCCCN)C(=O)N[C@H](CCCCN)C(=O)N[C@H](C(=O)N[C@@H](Cc1c[nH]cn1)C(=O)N[C@@H](CCCNC(=N)N)C(=O)N[C@@H](CC(C)C)C(=O)N[C@H](C(=O)N[C@H](C(=O)NCC(N)=O)[C@@H](C)O)C(C)C)[C@@H](C)CC)C(C)C)C(C)C [T15dK Piscidin-1] (HELM PEPTIDE1{F.F.H.H.I.F.R.G.I.V.H.V.G.K.[dK].I.H.R.L.V.T.G.[am]}$$$$V2.0)
- MIC (E. coli (ATCC 25922); [12]): 4.0 µM (≈ 10.4 µg/mL)
- Minimum inhibitory conc. (MIC) against bacteria 7 ([1]; ATCC 1708): 2.5 ± 0.4 µM (≈ 6.5 µg/mL)
- Minimum inhibitory conc. (MIC) against bacteria 5 ([2]; ATCC BAA-44): 2.5 ± 0.4 µM (≈ 6.5 µg/mL)
- Minimum inhibitory conc. (MIC) against bacteria 6 ([3]; ATCC 700698): 5.0 ± 0.7 µM (≈ 13 µg/mL)
- Minimum inhibitory conc. (MIC) against bacteria 4 ([4]; ATCC 33592): 2.5 ± 0.4 µM (≈ 6.5 µg/mL)
- Minimum inhibitory conc. (MIC) against bacteria 3 ([5]; ATCC 700699): 10.0 ± 1.4 µM (≈ 26 µg/mL)
- HC50, peptide concentration leading to 50% lysis of human RBC [10]: 125 µM
- Minimum inhibitory conc. (MIC) against bacteria 10 [6]: 3.6 ± 0.5 µM (≈ 9.35 µg/mL)
- Minimum inhibitory conc. (MIC) against bacteria 2 [7]: 2.5 ± 0.4 µM (≈ 6.5 µg/mL)
- Minimum inhibitory conc. (MIC) against bacteria 1 [8]: 2.5 ± 0.4 µM (≈ 6.5 µg/mL)
- Minimum inhibitory conc. (MIC) against bacteria 9 (B. subtilis (ATCC 6633)): 9.0 ± 1.3 µM (≈ 23.4 µg/mL)
- Minimum inhibitory conc. (MIC) against bacteria 8 [9]: 7.5 ± 1.0 µM (≈ 19.5 µg/mL)

Compound: Gentamycin [reference compound]
- MIC (E. coli (ATCC 25922); [12]): 3.14 µM
- Minimum inhibitory conc. (MIC) against bacteria 7 [1, 13]: 3.2 µM
- Minimum inhibitory conc. (MIC) against bacteria 5 [2, 14]: >50 µM
- Minimum inhibitory conc. (MIC) against bacteria 6 [3, 15]: >100 µM
- Minimum inhibitory conc. (MIC) against bacteria 4 [4, 16]: >100 µM
- Minimum inhibitory conc. (MIC) against bacteria 3 [5, 17]: >100 µM
- MIC [6]: 3.26 µM
- MIC [7]: 1.6 µM
- MIC [8]: 0.8 µM
- MIC (B. subtilis (ATCC 6633)): 0.048 µM
- MIC [9]: 1.46 µM

Compound: H-FFHHIFRGIVHVGKKIHRLVTG-NH2 [T15K Piscidin-1]
- MIC (E. coli (ATCC 25922); [12]): 3.5 µM
- Minimum inhibitory conc. (MIC) against bacteria 7 [1, 13]: 2.5 ± 0.4 µM
- Minimum inhibitory conc. (MIC) against bacteria 5 [2, 14]: 1.25 ± 0.3 µM
- Minimum inhibitory conc. (MIC) against bacteria 6 [3, 15]: 2.5 ± 0.4 µM
- Minimum inhibitory conc. (MIC) against bacteria 4 [4, 16]: 1.25 ± 0.3 µM
- Minimum inhibitory conc. (MIC) against bacteria 3 [5, 17]: 2.5 ± 0.4 µM
- HC50, peptide concentration leading to 50% lysis of human RBC [10]: 46 µM
- Minimum inhibitory conc. (MIC) against bacteria 10 [6]: 3.2 ± 0.4 µM
- Minimum inhibitory conc. (MIC) against bacteria 2 [7]: 2.5 ± 0.4 µM
- Minimum inhibitory conc. (MIC) against bacteria 1 [8]: 1.25 ± 0.3 µM
- Minimum inhibitory conc. (MIC) against bacteria 9 (B. subtilis (ATCC 6633)): 8.5 ± 1.2 µM
- Minimum inhibitory conc. (MIC) against bacteria 8 [9]: 7.0 ± 1.0 µM

Compound: H-FFHHIFRGIVHVGKTIHRLVTG-NH2 [Piscidin-1]
- MIC (E. coli (ATCC 25922); [12]): 3.0 µM
- Minimum inhibitory conc. (MIC) against bacteria 7 ([1]; ATCC 1708): 2.5 ± 0.4 µM
- Minimum inhibitory conc. (MIC) against bacteria 5 ([2]; ATCC BAA-44): 2.5 ± 0.4 µM
- Minimum inhibitory conc. (MIC) against bacteria 6 ([3]; ATCC 700698): 2.5 ± 0.4 µM
- Minimum inhibitory conc. (MIC) against bacteria 4 ([4]; ATCC 33592): 2.5 ± 0.4 µM
- Minimum inhibitory conc. (MIC) against bacteria 3 ([5]; ATCC 700699): 5.0 ± 0.7 µM
- HC50, peptide concentration leading to 50% lysis of human RBC [10]: 15 µM
- Minimum inhibitory conc. (MIC) against bacteria 10 [6]: 3.8 ± 0.5 µM
- Minimum inhibitory conc. (MIC) against bacteria 2 [7]: 2.5 ± 0.4 µM
- Minimum inhibitory conc. (MIC) against bacteria 1 [8]: 1.25 ± 0.3 µM
- Minimum inhibitory conc. (MIC) against bacteria 9 (B. subtilis (ATCC 6633)): 8.0 ± 1.0 µM
- Minimum inhibitory conc. (MIC) against bacteria 8 [9]: 6.0 ± 0.7 µM

Compound: X-FFHHIFRGIVHVGKKIHRLVKG–amide [NBD-T15,21K-piscidin-1, T15,21K-piscidin-1 labelled at its N-terminus by NBD]
- fold lower fluorescence of hRBCs bound to peptide than cells bound to NBD-labeled piscidin-1 (hRBCs): about 5 fold

Compound: X-FFHHIFRGIVHVGKkIHRLVkG–amide [NBD-T15,21dK-piscidin-1, T15,21dK-piscidin-1 labelled at its N-terminus by NBD]
- fold lower fluorescence of hRBCs bound to peptide than cells bound to NBD-labeled piscidin-1 (hRBCs): ~7.5 fold

Compound: polymyxin B [reference compound]
- mortality rate of LPS-administered mice [11]: zero
